Experimental data taken from patent publication US5955508A, “Method for the enhancement of lymphocyte activity against opportunistic microbial pathogens” (priority 1996, dated 1999).

Key:
fungal infections = settings: AIDS patients; cited from earlier work
[1] = system: human percoll-fractionated peripheral blood lymphocytes mediated NK activity; settings: in vitro, cited from earlier work
[2] = Plasma d-FEN and d-norFEN levels and half-life in mice; type: in vivo; settings: mouse; d-FEN p.o. in drinking water; sacrificed 11:00-13:00 h
Procedure: Mice like rats are prandial drinkers during the dark period of the light-dark cycle. The animals were sacrificed between 11:00 and 13:00 h, 4-6 h after the end of the dark period.

[3] = mouse; cited from earlier work
K562 human tumor cells = experiment: Natural killer cell cytotoxicity of human PBMC against K562 tumor cells in vitro; type: cell-based
Procedure: Prior to conducting the above experiment, we examined the dose dependent effects of d-FEN on the ability of human PBMC obtained from five healthy volunteers (person Caucasians) to kill human K562 tumor cells in vitro. The potential cytotoxic enhancing effects of d-FEN and d-norFEN were compared using PBMC from two of the five human donors.
For assessment of immunological parameters of human PBMC, venous blood as aseptically drawn into sterile 10 ml tubes containing 20 U/ml preservative free heparin, diluted with an equal volume of Hank's Balanced Salt Solution (HBSS), layered over Lymphocyte Separation Medium (LSM, Bionetics, Kensington, Md.) and centrifuged at 1,000 ×g for 30 min. After centrifugation, the mononuclear cell layer was recovered from the interface and washed twice in HBSS and enumerated.
The K562 cell line originated from a chronic myelogenous leukemia patient and was obtained from Dr. T. Ellis (Director, Cellular Immunology Laboratory, LUMC). The K562 cells used for assessment of cytotoxic activity were maintained in long term cultures using Corning 25 cm^2 tissue culture flasks (Corning Glass Works, Corning, N.Y.) containing RPMI 1640 (Gibco Laboratories, Grand Island, N.Y.) supplemented with low LPS 10% fetal bovine serum (FBS; Gibco), 100 units/ml penicillin, 100 μg/ml streptomycin (Whittaker M. A. Bioproducts, Walkersville, Md.), 0.1 mM non-essential amino acids, and 2 mM L-glutamine (Gibco). This medium was used throughout, except where noted, and is referred to as "culture medium". The K562 cells were grown in suspension and were passaged three times per week by transfer of 10^6 K562 cells into a flask containing 10 ml of fresh culture medium. The K562 cells injected into the SCID mice were supplemented with fresh medium at a 1:3 dilution the day before administration. They were washed once in medium, pelleted by centrifugation at 500 ×g for 10 min., then resuspended at a concentration of 5×10^7. Subsequently, 0.2 ml (1×10^7 cells) of the cell suspension was injected (i.p.) into each SCID mouse. The K562 cells were administered to the animals four days after the injection of PBMC.
The K562 tumor cell lines maintained in vitro were washed once in culture medium, pelleted by centrifugation at 500×g for 10 min and resuspended in approximately 0.1 ml of culture medium. Subsequently, 100 μCi of [^51 Cr] (New England Nuclear, Boston, Mass.) was added to 1×10^5 cells in a final volume of 0.2 ml. The cells were incubated at 37° C. with 5% CO2 for 1 h with agitation every 10 min, then washed 3 times in HBSS, resuspended to 5×10^4 cells/ml in culture medium and 0.1 ml (5×10^3) aliquoted to each well of a 96 well round bottom assay plate (Corning Glass Works, Corning, N.Y.). Radiolabelled K562 was cultured for 4 h with lymphocytes at effector to target ratios ranging from 50:1 to 6:1. Following 4 h of culture the media was removed using a Skatron harvesting press (Skatron Inc., Sterling, Va.) and associated radioactivity determined. Maximum release was obtained by adding 0.05% Nonidet P-40 (Sigma Chemical Co., St. Louis, Mo.).
The results have been expressed as % cytotoxicity and calculated by the formula: % cytotoxicity=[(experimental DPM-minimum DPM)/(maximum DPM-minimum DPM)]×100.
All experimental means were calculated from triplicate values. Lytic units (LU) were calculated using a computer program written by David Coggins, FCRC, Frederick, Md.

T-cell counts = settings: AIDS patients; fenfluramine with phentermine; cited from earlier work

C[C@@H]1[C@H](O)[C@@H](C)/C=C/C=C/C=C/C=C/C=C/C=C/C=C/[C@H](O[C@@H]2O[C@H](C)[C@@H](O)[C@H](N)[C@@H]2O)C[C@@H]2O[C@](O)(C[C@@H](O)C[C@@H](O)[C@H](O)CC[C@@H](O)C[C@@H](O)CC(=O)O[C@H]1C)C[C@H](O)[C@H]2C(=O)O [amphotericin B]
effect on fungal infections in words (fungal infections): can suppress fungal infections, but for the first time appear to have no curative effect in AIDS patients

NCCc1c[nH]c2ccc(O)cc12 [5-HT]
effect on NK activity in words ([1]; 5-HT dose dependent): stimulatory effects
duration of NK stimulation [1]: 16 h

C[C@H](N)Cc1cccc(C(F)(F)F)c1 [d-norFEN]
plasma d-FEN and d-norFEN levels at sacrifice [2]: Neither d-FEN nor d-norFEN was detected
t1/2 [3]: 6 h
percent increase in cytotoxicity (K562 human tumor cells; 0.25 ng/ml, DONOR #1): 29%
percent increase in cytotoxicity (K562 human tumor cells; 0.25 ng/ml, DONOR #2): 19%
percent increase in cytotoxicity (K562 human tumor cells; 0.50 ng/ml, DONOR #1): 24%
percent increase in cytotoxicity (K562 human tumor cells; 0.50 ng/ml, DONOR #2): 28%
percent increase in cytotoxicity (K562 human tumor cells; 1.00 ng/ml, DONOR #1): 11%
percent increase in cytotoxicity (K562 human tumor cells; 1.00 ng/ml, DONOR #2): 13%
d-FEN vs d-norFEN effect on cytotoxicity in words (K562 human tumor cells; PBMC of two donors): virtually identical effects
effect on capacity of human NK cells to kill K562, in words (K562 human tumor cells; conclusion): augments the capacity of human NK cells to kill the human tumor cell line, K562

CCNC(C)Cc1cccc(C(F)(F)F)c1 (racemic) [fenfluramine]
T-cell counts in words (T-cell counts): significant improvement of their T-cell counts
